Test results taken from ChEMBL document CHEMBL1201862, “PubChem BioAssay data set” (2004).
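Tested at 5 concentrations; 48 h exposure; 96-well plates; endpoints linearly interpolated, else capped at highest concentration. Here, GI50 denotes the concentration required for 50% inhibition of growth.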 Calls of active or inactive are those of the source. Rule as the data show it: active = GI50 up to about 1.1 µM and inactive = higher.

Experiments:
Test in all cases: growth of human tumour cells (NCI), 48 h
[1] = system: OVCAR-5
[2] = system: SF-295
[3] = system: RXF 393
[4] = system: SF-539
[5] = system: M14
[6] = system: HCT-116
[7] = system: DU-145
[8] = system: SW-620
[9] = system: RPMI-8226
[10] = system: NCI/ADR-RES
[11] = system: SNB-75
[12] = system: SK-OV-3
[13] = system: UACC-62
[14] = system: EKVX
[15] = system: K562
[16] = system: SK-MEL-2
[17] = system: HOP-92
[18] = system: OVCAR-8
[19] = system: Malme-3M
[20] = system: NCI-H460

Compound: CC(=O)OCC1OC(n2c(N)c(C#N)c(-c3cccc(Cl)c3)c(C#N)c2=S)C(OC(C)=O)C(OC(C)=O)C1OC(C)=O (stereo not given)
- GI50 [1]: 44.8 µM (inactive)
- GI50 [2]: 31.2 µM (inactive)
- GI50 [3]: 3.9 µM (inactive)
- GI50 [4]: 12.6 µM (inactive)
- GI50 [5]: 22.4 µM (inactive)
- GI50 [6]: 22.4 µM (inactive)
- GI50 [7]: 18.2 µM (inactive)
- GI50 [8]: 32.7 µM (inactive)
- GI50 [9]: 10.9 µM (inactive)
- GI50 [10]: 28.4 µM (inactive)
- GI50 [11]: 22.2 µM (inactive)
- GI50 [12]: 20.7 µM (inactive)
- GI50 [13]: 26.9 µM (inactive)
- GI50 [14]: 27.2 µM (inactive)
- GI50 [15]: 28.2 µM (inactive)
- GI50 [16]: 19 µM (inactive)
- GI50 [17]: 23 µM (inactive)
- GI50 [18]: 14.9 µM (inactive)
- GI50 [19]: 25.2 µM (inactive)
- GI50 [20]: 24.8 µM (inactive)

Compound: O=C(O)CCC(C(=O)O)N1C(=O)C2C3CCC(C3)C2C1=O (stereo not given)
- GI50 [1]: > 100 µM (inactive)
- GI50 [2]: > 100 µM (inactive)
- GI50 [3]: > 100 µM (inactive)
- GI50 [4]: > 100 µM (inactive)
- GI50 [5]: > 100 µM (inactive)
- GI50 [6]: > 100 µM (inactive)
- GI50 [7]: > 100 µM (inactive)
- GI50 [8]: > 100 µM (inactive)
- GI50 [9]: > 100 µM (inactive)
- GI50 [10]: > 100 µM (inactive)
- GI50 [11]: > 100 µM (inactive)
- GI50 [12]: > 100 µM (inactive)
- GI50 [13]: > 100 µM (inactive)
- GI50 [14]: > 100 µM (inactive)
- GI50 [15]: > 100 µM (inactive)
- GI50 [16]: > 100 µM (inactive)
- GI50 [17]: > 100 µM (inactive)
- GI50 [18]: > 100 µM (inactive)
- GI50 [19]: > 100 µM (inactive)
- GI50 [20]: > 100 µM (inactive)

Compound: C1=N\CCNCC/N=C\c2ccc(cc2)OCc2cccc(n2)COc2ccc/1cc2
- GI50 [1]: > 100 µM (inactive)
- GI50 [2]: 24.7 µM (inactive)
- GI50 [3]: 98.9 µM (inactive)
- GI50 [4]: 47.1 µM (inactive)
- GI50 [5]: 77.6 µM (inactive)
- GI50 [6]: > 100 µM (inactive)
- GI50 [7]: > 100 µM (inactive)
- GI50 [8]: > 100 µM (inactive)
- GI50 [9]: > 100 µM (inactive)
- GI50 [10]: 63.1 µM (inactive)
- GI50 [11]: 23 µM (inactive)
- GI50 [12]: 36.3 µM (inactive)
- GI50 [13]: > 100 µM (inactive)
- GI50 [14]: > 100 µM (inactive)
- GI50 [15]: > 100 µM (inactive)
- GI50 [16]: 70.3 µM (inactive)
- GI50 [17]: > 100 µM (inactive)
- GI50 [18]: 39.5 µM (inactive)
- GI50 [19]: 90.8 µM (inactive)
- GI50 [20]: > 100 µM (inactive)

Compound: Nc1cc2c3c(cccc3c1)C(=O)N(c1ccc(OCCN3CCCC3)cc1)C2=O
- GI50 [1]: 21.1 µM (inactive)
- GI50 [2]: 13.5 µM (inactive)
- GI50 [3]: 14.2 µM (inactive)
- GI50 [4]: 13.3 µM (inactive)
- GI50 [5]: 20.7 µM (inactive)
- GI50 [6]: 14.7 µM (inactive)
- GI50 [7]: 27.4 µM (inactive)
- GI50 [8]: 29.4 µM (inactive)
- GI50 [9]: 22.4 µM (inactive)
- GI50 [10]: 23.9 µM (inactive)
- GI50 [11]: 3.94 µM (inactive)
- GI50 [12]: 1.61 µM (inactive)
- GI50 [13]: 16.6 µM (inactive)
- GI50 [14]: 18.4 µM (inactive)
- GI50 [15]: 14.5 µM (inactive)
- GI50 [16]: 19.4 µM (inactive)
- GI50 [17]: 17.8 µM (inactive)
- GI50 [18]: 15.9 µM (inactive)
- GI50 [19]: 17.7 µM (inactive)
- GI50 [20]: 11.5 µM (inactive)

Compound: c1ccc(CSc2ccccc2CN2CCN(Cc3ccccc3SCc3ccccc3)CCN(Cc3ccccc3SCc3ccccc3)CC2)cc1
- GI50 [1]: 1.64 µM (inactive)
- GI50 [2]: 1.04 µM (active)
- GI50 [3]: 1.77 µM (inactive)
- GI50 [4]: 1.86 µM (inactive)
- GI50 [5]: 1.55 µM (inactive)
- GI50 [6]: 0.646 µM (active)
- GI50 [7]: 2.94 µM (inactive)
- GI50 [8]: 2.38 µM (inactive)
- GI50 [9]: 0.384 µM (active)
- GI50 [10]: 2.44 µM (inactive)
- GI50 [11]: 1.6 µM (inactive)
- GI50 [12]: 2.21 µM (inactive)
- GI50 [13]: 1.43 µM (inactive)
- GI50 [14]: 1.2 µM (inactive)
- GI50 [15]: 0.989 µM (active)
- GI50 [16]: 1.45 µM (inactive)
- GI50 [17]: 0.359 µM (active)
- GI50 [18]: 1.22 µM (inactive)
- GI50 [19]: 1.71 µM (inactive)
- GI50 [20]: 1.19 µM (inactive)

Compound: COc1ccc(C(=O)/C=C/c2cc(O)c(O)cc2F)c(OC)c1
- GI50 [1]: 15.3 µM (inactive)
- GI50 [2]: 5.65 µM (inactive)
- GI50 [3]: 9.68 µM (inactive)
- GI50 [4]: 6.04 µM (inactive)
- GI50 [5]: 10.2 µM (inactive)
- GI50 [6]: 6.97 µM (inactive)
- GI50 [7]: 6.19 µM (inactive)
- GI50 [8]: 6.82 µM (inactive)
- GI50 [9]: 3.34 µM (inactive)
- GI50 [10]: 7.85 µM (inactive)
- GI50 [11]: 4.67 µM (inactive)
- GI50 [12]: 10.6 µM (inactive)
- GI50 [13]: 10.9 µM (inactive)
- GI50 [14]: 14.4 µM (inactive)
- GI50 [15]: 1.16 µM (inactive)
- GI50 [16]: 4.91 µM (inactive)
- GI50 [17]: 50.1 µM (inactive)
- GI50 [18]: 14.5 µM (inactive)
- GI50 [19]: 7.71 µM (inactive)
- GI50 [20]: 3.99 µM (inactive)

Compound: Nc1ccccc1/N=C/c1cc2cc([N+](=O)[O-])ccc2s1
- GI50 [1]: 32.7 µM (inactive)
- GI50 [2]: 21.9 µM (inactive)
- GI50 [3]: 14.5 µM (inactive)
- GI50 [4]: 12.1 µM (inactive)
- GI50 [5]: 22.4 µM (inactive)
- GI50 [6]: 24.9 µM (inactive)
- GI50 [7]: 12.6 µM (inactive)
- GI50 [8]: 29.5 µM (inactive)
- GI50 [9]: 5.52 µM (inactive)
- GI50 [10]: 32.1 µM (inactive)
- GI50 [11]: 14.4 µM (inactive)
- GI50 [12]: 13.9 µM (inactive)
- GI50 [13]: 12.6 µM (inactive)
- GI50 [14]: 18.6 µM (inactive)
- GI50 [15]: 12.7 µM (inactive)
- GI50 [16]: 12.7 µM (inactive)
- GI50 [17]: 18.9 µM (inactive)
- GI50 [18]: 15 µM (inactive)
- GI50 [19]: 26.6 µM (inactive)
- GI50 [20]: 5.58 µM (inactive)

Compound: Cc1cc([C@H](C#N)c2nc3ccccc3s2)nc(Cl)n1
- GI50 [1]: 16.3 µM (inactive)
- GI50 [2]: 15.5 µM (inactive)
- GI50 [3]: 7.4 µM (inactive)
- GI50 [4]: 4.92 µM (inactive)
- GI50 [5]: 5.57 µM (inactive)
- GI50 [6]: 3.22 µM (inactive)
- GI50 [7]: 23.7 µM (inactive)
- GI50 [8]: 3.04 µM (inactive)
- GI50 [9]: 2.3 µM (inactive)
- GI50 [10]: 3.08 µM (inactive)
- GI50 [11]: 2.21 µM (inactive)
- GI50 [12]: 5.66 µM (inactive)
- GI50 [13]: 3.65 µM (inactive)
- GI50 [14]: 18.6 µM (inactive)
- GI50 [15]: 2.75 µM (inactive)
- GI50 [16]: 4.72 µM (inactive)
- GI50 [17]: 2.32 µM (inactive)
- GI50 [18]: 3.18 µM (inactive)
- GI50 [19]: 3.81 µM (inactive)
- GI50 [20]: 3.45 µM (inactive)

Compound: O=c1c(Cl)nsnc1Cl
- GI50 [1]: 20.1 µM (inactive)
- GI50 [2]: 18.4 µM (inactive)
- GI50 [3]: 12.1 µM (inactive)
- GI50 [4]: 12.9 µM (inactive)
- GI50 [5]: 5.01 µM (inactive)
- GI50 [6]: 7.01 µM (inactive)
- GI50 [7]: 17.3 µM (inactive)
- GI50 [8]: 3.43 µM (inactive)
- GI50 [9]: 1.54 µM (inactive)
- GI50 [10]: 40.1 µM (inactive)
- GI50 [11]: 22.6 µM (inactive)
- GI50 [12]: 19.1 µM (inactive)
- GI50 [13]: 11.1 µM (inactive)
- GI50 [14]: 25.6 µM (inactive)
- GI50 [15]: 1.73 µM (inactive)
- GI50 [16]: 36.4 µM (inactive)
- GI50 [17]: 0.665 µM (active)
- GI50 [18]: 36.1 µM (inactive)
- GI50 [19]: 6.38 µM (inactive)
- GI50 [20]: 29.3 µM (inactive)

Compound: O=S(=O)(c1ccccc1)[C@H]1[C@@H]2O[C@@H]2C[C@@H]1O
- GI50 [1]: > 100 µM (inactive)
- GI50 [2]: > 100 µM (inactive)
- GI50 [3]: > 100 µM (inactive)
- GI50 [4]: > 100 µM (inactive)
- GI50 [5]: > 100 µM (inactive)
- GI50 [6]: > 100 µM (inactive)
- GI50 [7]: > 100 µM (inactive)
- GI50 [8]: > 100 µM (inactive)
- GI50 [9]: > 100 µM (inactive)
- GI50 [10]: > 100 µM (inactive)
- GI50 [11]: 47.4 µM (inactive)
- GI50 [12]: > 100 µM (inactive)
- GI50 [13]: > 100 µM (inactive)
- GI50 [14]: > 100 µM (inactive)
- GI50 [15]: > 100 µM (inactive)
- GI50 [16]: > 100 µM (inactive)
- GI50 [17]: > 100 µM (inactive)
- GI50 [18]: > 100 µM (inactive)
- GI50 [19]: > 100 µM (inactive)
- GI50 [20]: > 100 µM (inactive)
